Experimental data published in patent EP0233461B2, “4,5,6-Substituted-2-pyrimidinamines” (AMERICAN CYANAMID COMPANY, priority 1986, dated 1987).
Structures can show the parent of a compound that is named as a salt.

test system: human basophils; assay: Inhibition of histamine release from immunologically stimulated human basophils; type: cell-based; settings: Homo sapiens, concentration causing 50% inhibition of histamine release, by linear regression; active if IC50 ≦ 48 µM
Protocol: The blood is allowed to sediment at room temperature in two 50 ml polycarbonate centrifuge tubes until a sharp interface develops between the red cells and plasma (60-90 minutes). The plasma (top) layer from each tube is withdrawn by pipet and transferred to respective 50 ml polycarbonate tubes. The plasma is centrifuged for 8 minutes at 110X G at 4°C. The supernatant is carefully poured off as completely as possible and the cell button is resuspended in 2-3 ml of Tris-A buffer using a siliconized Pasteur pipet. The resuspension is accomplished by drawing the liquid gently in an out of the pipet, with the tip below the liquid until an even suspension of cells is obtained. Sufficient Tris-A buffer is then added to bring the volume in the tube to about 45 ml and the tube is centrifuged at 110X G for 8 minutes at 4°C. The supernatant is poured off and the cell button is resuspended and centrifuged as described above. The supernatant is poured off and the cell button is suspended in 2-3 ml of Tris-ACM buffer to make the final volume sufficient to allow addition to the reaction tubes. Reaction tubes containing anti-IgE or antigens, either alone or with test compound in a total volume of 0.2 ml are prepared and placed in a 37°C bath. The cells are warmed to 37°C and frequently swirled to ensure an even suspension, while 1.0 ml aliquots are added to each reaction tube. The tubes are then incubated for 60 minutes at 37°C, vortexing the tubes gently every 15 minutes to keep the cells evenly suspended. When the reaction is complete, the tubes are centrifuged at 4°C for 10 minutes at 1500 rpm to sediment the cells. […] Blanks and totals are included in each test. The blanks have cells and all reagents except antigen or anti-IgE. The totals contain 0.24 ml of 8% perchloric acid, one ml of cells and 0.2 ml of buffer. All samples are then centrifuged to remove the precipitate protein. […] The automated system consists of the following Technicon Autoanalyzer II components Sampler IV, Dual-Speed Proportioning Pump III, Fluoronephelometer with a narrow pass primary filter 7-60 and a secondary filter 3-74, Recorder, and Digital Printer. The manifold used is the one described by Siraganian vide supra, with the following modifications: the dialyzer is omitted; all pumping tubes pass through a single proportioning pump with large capacity and twice the volume of sample is taken for anaylsis. The automated chemistry consists of the following steps: Extraction from alkaline saline into butanol, back extraction into dilute hydrochloric acid by addition of heptane, reaction of histamine with o-phthaldialdehyde (OPT) at high pH and conversion of the OPT adduct to a stable fluorophore with phosphoric acid. The reaction product is then passed through the fluorometer. The full scale response is adjusted to 50 ng histamine base with a threshold sensitivity of approximately 0.5 ng. The instrument blank (wash) is substracted from the ng histamine of each sample. Then the ng histamine of each sample is divided by the mean of the three totals (cells lysed with perchloric acid) to obtain percent release. Control samples contain antigen but no test compound. Blank (or spontaneous release) samples contain neither antigen nor test compound. The mean of the blanks (three replicates) is subtracted from the percent release for controls and test compounds.

In the case of COc1ccc(Nc2nccc(-c3cccnc3)n2)cc1 [N-(4-Methoxyphenyl)-4-(3-pyridinyl)-2-pyrimidinamine, sulfate], the IC50 is reported as < 48 µM.

same assay, conditions: Homo sapiens, concentration causing 50% inhibition of histamine release, by linear regression; active if IC50 ≦ 48 µM; read-out: IC50

First: COc1cccc(Nc2nccc(-c3cccs3)n2)c1 [N-(3-Methoxyphenyl)-4-(2-thienyl)-2-pyrimidinamine]
Second: COc1cccc(Nc2nccc(-c3ccc(C)s3)n2)c1 [N-(3-Methoxyphenyl)-4-(5-methyl-2-thienyl)-2-pyrimidinamine]
The IC50 of the first is 2.6-fold lower: 0.9 µM for the first, 2.3 µM for the second.

CCc1ccc(Nc2nccc(-c3cccnc3)n2)cc1 [N-(4-Ethylphenyl)-4-(3-pyridinyl)-2-pyrimidinamine] and CCc1cccc(Nc2nccc(-c3cccnc3)n2)c1 [N-(3-Ethylphenyl)-4-(3-pyridinyl)-2-pyrimidinamine] cannot be ordered by IC50: < 48 µM for the first, 1.7 µM for the second.

Compared with FC(F)(F)c1cccc(Nc2nccc(-c3ccccn3)n2)c1 [4-(2-Pyridinyl)-N-[3-(trifluoromethyl)phenyl]-2-pyrimidinamine], Fc1cccc(Nc2nccc(-c3ccccn3)n2)c1 [N-(3-Fluorophenyl)-4-(2-pyridinyl)-2-pyrimidinamine] is 3.2-fold lower in IC50: 2.9 µM for the first, 0.9 µM for the second.

First: Cc1ccc(-c2ccnc(Nc3cccc(N(C)C)c3)n2)o1 [N,N-Dimethyl-N'-[4-(5-methyl-2-furanyl)-2-pyrimidinyl]-1,3-benzenediamine]
Second: Cc1ccc(-c2ccnc(Nc3cccc(N(C)C)c3)n2)s1 [N,N-Dimethyl-N'-[4-(5-methyl-2-thienyl)-2-pyrimidinyl]-1,3-benzenediamine]
The IC50 of the first is 3.6-fold lower: 1.6 µM for the first, 5.7 µM for the second.

Fc1ccc(Nc2nccc(-c3cccnc3)n2)c(F)c1 [N-(2,4-Difluorophenyl)-4-(3-pyridinyl)-2-pyrimidinamine] and Cc1ccc(Nc2nccc(-c3cccnc3)n2)cc1Cl [N-(3-Chloro-4-methylphenyl)-4-(3-pyridinyl)-2-pyrimidinamine] cannot be ordered by IC50: < 48 µM for the first, 9.3 µM for the second.

Compared with CC(=O)N(C)c1ccc(Nc2nccc(-c3ccccn3)n2)cc1 [N-Methyl-N-[4-[[4-(2-pyridinyl)-2-pyrimidinyl]amino]phenyl]acetamide], COc1ccc(Nc2nccc(-c3ccccn3)n2)cc1 [N-(4-Methoxyphenyl)-4-(2-pyridinyl)-2-pyrimidinamine] is 14-fold higher in IC50: 0.6 µM for the first, 8.3 µM for the second.

COc1cccc(Nc2nccc(-c3ccco3)n2)c1 [4-(2-Furanyl)-N-(3-methoxyphenyl)-2-pyrimidinamine] and COc1cccc(Nc2nccc(-c3ccccn3)n2)c1 [N-(3-Methoxyphenyl)-4-(2-pyridinyl)-2-pyrimidinamine] are within 1.5-fold of each other in IC50: 0.3 µM for the first, 0.2 µM for the second.

Going from c1ccc(-c2ccnc(Nc3cccc4ccccc34)n2)nc1 [N-1-Naphthalenyl-4-(2-pyridinyl)-2-pyrimidinamine] to c1ccc2c(Nc3nccc(-c4ccncc4)n3)cccc2c1 [N-1-Naphthalenyl-4-(4-pyridinyl)-2-pyrimidinamine], the IC50 rises from 3 µM to 31.3 µM (10-fold). The first is the more potent here.

Going from Cc1cccc(Nc2nccc(-c3ccsc3)n2)c1 [N-(3-Methylphenyl)-4-(3-thienyl)-2-pyrimidinamine] to Cc1cccc(Nc2nccc(-c3ccncc3)n2)c1 [N-(3-Methylphenyl)-4-(4-pyridinyl)-2-pyrimidinamine], the IC50 rises from 3.8 µM to 9.4 µM (2.5-fold). The first is the more potent here.

Cc1cc(-c2ccnc(Nc3cccc(N(C)C)c3)n2)c(C)o1 [N'-[4-(2,5-Dimethyl-3-furanyl)-2-pyrimidinyl]-N,N-dimethyl-1,3-benzenediamine] and Cc1cc(-c2ccnc(Nc3ccccc3)n2)c(C)o1 [4-(2,5-Dimethyl-3-furanyl)-N-phenyl-2-pyrimidinamine] cannot be ordered by IC50: < 24 µM for the first, 2 µM for the second.

FC(F)(F)c1cc(Nc2nccc(-c3ccccn3)n2)ccc1-n1ccnc1 [N-[4-(1H-Imidazol-1-yl)-3-(tri-fluoromethyl)phenyl]-4-(2-pyridin-yl)-2-pyrimidinamine] and Clc1cccc(Nc2nccc(-c3ccccn3)n2)c1 [N-(3-Chlorophenyl)-4-(2-pyridinyl)-2-pyrimidinamine] are within 1.5-fold of each other in IC50: 1.6 µM for the first, 1.3 µM for the second.

Going from CC(C)(C)c1ccc(Nc2nccc(-c3cccnc3)n2)cc1 [N-[4-(1,1-Dimethylethyl)phenyl]-4-(3-pyridinyl)-2-pyrimidinamine] to c1cncc(-c2ccnc(Nc3ccc(-n4ccnc4)cc3)n2)c1 [N-[4-(1H-Imidazol-1-yl)phenyl]-4-(3-pyridinyl)-2-pyrimidinamine], the IC50 rises from 0.7 µM to 1.3 µM (1.9-fold). The first is the more potent here.

Compared with Cc1cccc(Nc2nccc(-c3ccc[nH]3)n2)c1 [N-(3-Methylphenyl)-4-(1H-pyrrol-2-yl)-2-pyrimidinamine], Cc1cccc(Nc2nccc(-c3cc4ccccc4[nH]3)n2)c1 [4-(1H-Indol-2-yl)-N-(3-methylphenyl)-2-pyrimidinamine] is 5-fold lower in IC50: 11.1 µM for the first, 2.2 µM for the second. The second is the more potent here.

Compared with c1cc(Nc2nccc(-c3cccs3)n2)cc(-n2ccnc2)c1 [N-[3-(1H-Imidazol-1-yl)phenyl]-4-(2-thienyl)-2-pyrimidinamine], c1cc(Nc2nccc(-c3ccncc3)n2)cc(-n2ccnc2)c1 [N-[3-(1H-Imidazol-1-yl)phenyl]-4-(4-pyridinyl)-2-pyrimidinamine] is 2-fold higher in IC50: 0.2 µM for the first, 0.4 µM for the second. The first is the more potent here.

Cc1cc(-c2ccc(C)s2)nc(Nc2ccccc2)n1 [4-Methyl-6-(5-methyl-2-thienyl)-N-phenyl-2-pyrimidinamine] and Cc1cc(-c2ccccn2)nc(Nc2ccc(N(C)C)cc2)n1 [N,N-Dimethyl-N'-[4-methyl-6-(2-pyridinyl)-2-pyrimidinyl]-1,4-benzenediamine] are within 1.5-fold of each other in IC50: 24.8 µM for the first, 31.8 µM for the second.

First: Fc1cccc(Nc2nccc(-c3ccncc3)n2)c1 [N-(3-Fluorophenyl)-4-(4-pyridinyl)-2-pyrimidinamine]
Second: Clc1cccc(Nc2nccc(-c3ccncc3)n2)c1 [N-(3-Chlorophenyl)-4-(4-pyridinyl)-2-pyrimidinamine]
The IC50 of the first is 4.4-fold lower: 0.7 µM for the first, 3.1 µM for the second.

First: COc1ccc(Nc2nccc(-c3ccncc3)n2)cc1 [N-(4-Methoxyphenyl)-4-(4-pyridinyl)-2-pyrimidinamine]
Second: Cc1ccc(Nc2nccc(-c3ccncc3)n2)c(C)c1 [N-(2,4-Dimethylphenyl)-4-(4-pyridinyl)-2-pyrimidinamine]
The IC50 of the first is 24-fold lower: 1 µM for the first, 24 µM for the second.

First: CCN(CC)CCOc1cccc(Nc2nccc(-c3cccnc3)n2)c1 [N-[3-[2-(Diethylamino)ethoxy]phenyl]-4-(3-pyridinyl)-2-pyrimidinamine]
Second: CC(=O)Nc1cccc(Nc2nccc(-c3ccccn3)n2)c1 [N-[3-[[4-(2-Pyridinyl)-2-pyrimidinyl]amino]-phenyl]acetamide]
The IC50 of the first is 9.3-fold higher: 2.8 µM for the first, 0.3 µM for the second.

Compared with CN(C)c1ccccc1Nc1nccc(-c2ccncc2)n1 [N,N-Dimethyl-N'-[4-(4-pyridinyl)-2-pyrimidinyl]-1,2-benzenediamine, fumarate], c1coc(-c2ccnc(Nc3ccc(-n4ccnc4)cc3)n2)c1 [4-(2-Furanyl)-N-[4-(1H-imidazol-1-yl)phenyl]-2-pyrimidinamine] is 16-fold lower in IC50: 36.2 µM for the first, 2.2 µM for the second. The second is the more potent here.

Cc1cc(C)cc(Nc2nccc(-c3ccco3)n2)c1 [N-(3,5-Dimethylphenyl)-4-(2-furanyl)-2-pyrimidinamine] was tested, and the IC50 was 0.7 µM.

same assay, conditions: concentration causing 50% inhibition of histamine release, by linear regression; active if IC50 ≦ 48 µM; dihydrochloride; read-out: IC50

For CN(C)c1cccc(Nc2nccc(-c3ccccn3)n2)c1 [N,N-Dimethyl-N'-[4-(2-pyridinyl)-2-pyrimidinyl]-1,3-benzenediamine, dihydrochloride], the IC50 was 0.5 µM.

same assay, conditions: concentration causing 50% inhibition of histamine release, by linear regression; active if IC50 ≦ 48 µM; read-out: IC50

Going from Cc1cc(C)cc(Nc2nccc(-c3cccnc3)n2)c1 [N-(3,5-Dimethylphenyl)-4-(3-pyridinyl)-2-pyrimidinamine] to c1ccc(Nc2nccc(-c3ccncc3)n2)cc1 [N-Phenyl-4-(4-pyridinyl)-2-pyrimidinamine, compound with 2-h] [N-Phenyl-4-(4-pyridinyl)-2-pyrimidinamine, compound with 2-hydroxy-1,2,3-propanetricarboxylate (2:1)], the IC50 rises from 0.8 µM to 3.5 µM (4.4-fold).

same assay, conditions: concentration causing 50% inhibition of histamine release, by linear regression; active if IC50 ≦ 48 µM; sulfate

First: FC(F)(F)c1cccc(Nc2nccc(-c3ccccn3)n2)c1 [4-(2-Pyridinyl)-N-[3-(trifluoromethyl)phenyl]-2-pyrimidinamine, sulfate]
Second: Cc1cnc(Nc2ccccc2)nc1-c1ccco1 [4-(2-Furanyl)-5-methyl-N-phenyl-2-pyrimidinamine, sulfate]
The IC50 of the first is 1.7-fold lower: 3 µM for the first, 5 µM for the second.
